Measurements taken from patent publication US9464064B2, “HCV helicase inhibitors and methods of use thereof” (University of Kansas, priority 2011, dated 2016).
Where two headings read alike, the source gives them in different places.

How the values were obtained:
[1] = Absorbance and fluorescence properties; format: physicochemical; settings: for Absorbance ∈: extinction coefficient
Excerpt: Most of the compounds isolated from the two yellow dyes were fluorescent, absorbing light around 340 nm, and emitting near 420 nm. Their extinction coefficient and peak absorption wavelengths increased as the length of the benzothiazole oligomer increased. Their relative fluorescence decreased with the length of the benzothiazole chain. None of the compounds absorbed light near either the absorption or emission wavelengths of the Cy5-labeled MBHA substrate, or the wavelengths where the fluorescence of ethidium bromide stained DNA, SYBER green I-stained DNA, NS3-catalyzed peptide cleavage, or ATP hydrolysis were measured.
When directly compared with P4, the semi-synthetic primuline derivatives have a sharper absorbance peak centered near 360 nm, and they emit 3-15 times more light when excited at their absorbance maximum. […] Some compounds, like 12, stained both the cytoplasm and nucleus, but they also stained glass coverslips.

[2] = system: MBHA DNA substrate; assay: Modified FID assay, SYBR Green I; format: binding; settings: for DNA binding (%): SYBR Green I-FID, average (±SD) percent bound at 100 μM; for FID (SG) % Displaced @ 100 μM / EC50: SYBR Green; for EC50: read-out: FID (SG) EC50 (converted)
Procedure, shortened: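 Fluorescent intercalator displacement with SYBR Green I (0.68 μM) in place of ethidium bromide and MBHA DNA at 0.32 μM. Normalized data fit to concentration-response equation; EC50 given as mean ± SD of three independent triplicate titrations.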

[3] = molecular target: T1, HCV NS3 helicase NS3h_1b(con1) (Hepatitis C virus genotype 1b, UniProt Q9WMX2); assay: biochemical; format: biochemical, hepatitis C virus genotype 1b(con1)
T1 construct: truncated C-terminally His-tagged NS3 proteins lacking the N-terminal protease, called NS3h; His-tag (C); made in house
Procedure, shortened: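 Molecular beacon helicase assay with His-tagged recombinant NS3 and a Cy5/IBRQ-labelled partially duplex DNA substrate (25 bp) or Tye665-labelled RNA substrate (19 bp). Reactions started with 1 mM ATP. Screening read fluorescence before and 30 min after ATP (ex 643/em 670 nm). For IC50, 5% v/v DMSO was present, initial velocities came from first-order decay fits, and a Hill equation was applied.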

[4] = molecular target: T2, NS3h_1b (Hepatitis C virus genotype 1b, UniProt Q9WMX2); assay: ATPase assay without RNA; format: biochemical, hepatitis C virus genotype 1b(con1)
T2 construct: truncated C-terminally His-tagged NS3 proteins lacking the N-terminal protease, called NS3h; His-tag (C); made in house
Method: A modified “malachite green” assay (Lanzetta, et al. (1979) Anal. Biochem. 100:95-97) was used to measure ATP hydrolysis. Fifty μL reactions contained 25 mM MOPS pH 6.5, 5 mM MgCl2, 2 mM ATP, 5 μg/mL BSA, 0.01% (v/v) TWEEN 20, 0.05 mM DTT, and poly(U) RNA (Saint Louis, Mo.) as indicated. Reactions were initiated by adding NS3h_1b(con1). Reactions were incubated for 15 minutes at 37° C. then stopped by mixing 40 μL of the reaction into 200 μL of the malachite green reagent (3 volumes 0.045% (w/v) malachite green, 1 volume 4.2% ammonium molybdate in 4N HCl, 0.05 volume of 20% TWEEN 20). […] Absorbance at 630 nm was proportional to the concentration of phosphate produced; free phosphate produced was measured against a standard curve.
A simple explanation for the ability of some of the primuline derivatives to inhibit helicase and protease with similar potency would be that the compounds acted by simply aggregating or denaturing the enzyme. To test for irreversible inhibition, NS3h was incubated with 100 μM of each compound, diluted and then assayed for its ability to unwind DNA under standard conditions. […] In a second test for a simple aggregation mechanism, each compound was tested for its ability to inhibit NS3-catalyzed ATP hydrolysis. ATP hydrolysis fuels the unwinding reaction and NS3 hydrolyzes ATP both in the presence and absence of DNA or RNA; nucleic acid stimulates NS3 catalyzed ATP hydrolysis about 50-fold. […] To test this hypothesis, ATPase assays were performed in the presence of various concentrations of each primuline derivative, under conditions similar to those used to monitor effects on DNA and RNA unwinding. Far more of each compound was needed to inhibit NS3-catalyzed ATP hydrolysis than was needed to inhibit the helicase activity, or, in some cases, NS3 protease activity (Table 11).

[5] = DNA-based MBHA, genotype 1b, read-out: DNA Helicase NS3h_1b IC50 (μM) ± SD
[6] = MBHA, DNA unwinding, mean ± SD of three titrations, read-out: Helicase IC50
[7] = genotype 1b (con1), read-out: Target Potency MBHA (IC50 avg., μM) 1b (con1)
[8] = standard HCV helicase MBHA (Table 9), read-out: DNA Unwinding IC50

T1 sequence (Q9WMX2 1192-1657): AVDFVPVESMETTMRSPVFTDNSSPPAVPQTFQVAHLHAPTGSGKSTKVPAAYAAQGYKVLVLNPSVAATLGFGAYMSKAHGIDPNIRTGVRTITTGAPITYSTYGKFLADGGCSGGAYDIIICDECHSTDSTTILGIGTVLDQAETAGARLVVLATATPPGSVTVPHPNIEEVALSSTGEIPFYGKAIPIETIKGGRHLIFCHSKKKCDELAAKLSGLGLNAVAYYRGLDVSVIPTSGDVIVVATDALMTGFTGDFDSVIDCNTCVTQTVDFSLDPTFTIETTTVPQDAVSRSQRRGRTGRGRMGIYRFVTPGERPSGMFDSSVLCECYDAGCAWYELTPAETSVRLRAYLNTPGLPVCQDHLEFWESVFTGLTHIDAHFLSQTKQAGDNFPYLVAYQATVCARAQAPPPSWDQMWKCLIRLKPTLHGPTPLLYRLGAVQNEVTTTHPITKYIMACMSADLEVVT
T2 sequence (Q9WMX2 1192-1657): as above

| Structure (SMILES) | Absorbance λmax [1] [nm] | Fluorescence Emmax [1] [nm] | Fluorescence RFU@ 10 μM [1] [RFU] | Absorbance ∈ [1] | DNA binding (%) [2] [%] | FID (SG) % Displaced @ 100 μM [2] [%] | EC50 [2] [µM] | IC50 [3, 5] [µM] | IC50 [3, 6] [µM] | IC50 [3, 7] [µM] | IC50 [3, 8] [µM] | IC50 [4] [µM] | times lower affinity towards NS3 than P4 ([3]; versus P4) |
| --- | --- | --- | --- | --- | --- | --- | --- | --- | --- | --- | --- | --- | --- |
| Cc1ccc2nc(-c3ccc4nc(-c5ccc(NC(=O)c6ccc(N)cc6)cc5)sc4c3)sc2c1S(=O)(=O)O [Compound 6, 2′-(4-(4-aminobenzamido)phenyl)-6-methyl-[2,6′-bibenzo[d]thiazole]-7-sulfonic acid] | 360 | 429 | 4 | 36,600 M^−1cm^−1 | 63 ± 15 | 63 ± 15 | 55 ± 13 | 10 ± 2.4 | 10 ± 2.4 | 10.3 ± 2.4 | 10 ± 2 | 194 ± 30 |  |
| Cc1ccc2nc(-c3ccc4nc(-c5ccc(NC(=O)c6ccc(F)cc6)cc5)sc4c3)sc2c1S(=O)(=O)O.N [Compound 7, 2′-(4-(4-fluorobenzamido)phenyl)-6-methyl-[2, bibenzo[d]thiazole]-7-sulfonic acid] | 356 | 496 | 111 | 24,950 M^−1cm^−1 | 35 ± 15 | 35 ± 15 | > 100 | 5 ± 0.6 | 5.2 ± 0.6 | 5.2 ± 0.6 | 5 ± 1 | 67 ± 30 |  |
| Cc1ccc2nc(-c3ccc4nc(-c5ccc(NC(=O)c6ccc(C(F)(F)F)cc6)cc5)sc4c3)sc2c1S(=O)(=O)O [Compound 12, 6-methyl-2′-(4-(4-(trifluoromethyl)benzamido)phenyl)-[2,6′-bibenzo[d]thiazole]-7-sulfonic acid] | 356 | 498 | 158 | 42,750 M^−1cm^−1 | 69 ± 9 | 69 ± 9 | 29 ± 9 | 2 ± 0.4 | 1.8 ± 0.4 | 1.8 ± 0.4 | 2 | 24 ± 5 |  |
| Cc1ccc2nc(-c3ccc4nc(-c5ccc(NC(=O)c6ccc(C(C)(C)C)cc6)cc5)sc4c3)sc2c1S(=O)(=O)O [Compound 13, 2′-(4-(4-(tert-butyl)benzamido)phenyl)-6-methyl-[2,6′-bibenzo[d]thiazole]-7-sulfonic acid] | 356 | 502 | 164 | 37,150 M^−1cm^−1 | 72 ± 19 | 72 ± 19 | 16 ± 6 | 8 ± 1 | 8.2 ± 1 | 8.2 ± 1 | 8 ± 1 | 150 ± 21 |  |
| Cc1ccc2nc(-c3ccc4nc(-c5ccc(NC(=O)c6ccc(Br)cc6)cc5)sc4c3)sc2c1S(=O)(=O)O [Compound 15, 2′-(4-(4-bromobenzamido)phenyl)-6-methyl-[2,6′-bibenzo[d]thiazole]-7-sulfonic acid] | 356 | 497 | 209 | 51,600 M^−1cm^−1 | 70 ± 9 | 70 ± 9 | 30 ± 13 | 5 ± 3.9 | 5.2 ± 4 | 5.2 ± 4 | 5 ± 4 | 50 ± 4 |  |
| Cc1ccc2nc(-c3ccc4nc(-c5ccc(NC(=O)c6cccc(Cl)c6)cc5)sc4c3)sc2c1S(=O)(=O)O [Compound 17, 2′-(4-(3-chlorobenzamido)phenyl)-6-methyl-[2,6′-bibenzo[d]thiazole]-7-sulfonic acid] | 356 | 502 | 215 | 59,500 M^−1cm^−1 | 41 ± 11 | 41 ± 11 | > 100 | 3 ± 0.8 | 2.6 ± 1 | 2.6 ± 1 | 3 ± 1 | 74 ± 7 |  |
| Cc1ccc2nc(-c3ccc4nc(-c5ccc(NC(=O)c6ccc(Cl)c(Cl)c6)cc5)sc4c3)sc2c1S(=O)(=O)O [Compound 18, 2′-(4-(3,4-dichlorobenzamido)phenyl)-6-methyl-[2,6′-bibenzo[d]thiazole]-7-sulfonic acid] | 356 | 501 | 203 | 44,000 M^−1cm^−1 | 67 ± 12 | 67 ± 12 | 30 ± 32 | 4 ± 1 | 3.7 ± 1 | 3.7 ± 1 | 4 ± 1 | 44 ± 12 |  |
| Cc1ccc2nc(-c3ccc4nc(-c5ccc(NC(=O)c6cc(C(F)(F)F)cc(C(F)(F)F)c6)cc5)sc4c3)sc2c1S(=O)(=O)O [Compound 24, 2′-(4-(3,5-bis(trifluoromethyl)benzamido)phenyl)-6-methyl-[2,6′-bibenzo[d]thiazole]-7-sulfonic acid] | 355 | 497 | 121 | 45,650 M^−1cm^−1 | 43 ± 13 | 43 ± 13 | 86 ± 210 | 22 ± 4.2 | 22 ± 4 | 22.2 ± 4 | 22 ± 4 | 141 ± 28 |  |
| Cc1ccc2nc(-c3ccc4nc(-c5ccc(NC(=O)c6cc(C(F)(F)F)ccc6F)cc5)sc4c3)sc2c1S(=O)(=O)O [Compound 25, 2′-(4-(2-fluoro-5-(trifluoromethyl)benzamido)phenyl)-6-methyl-[2,6′-bibenzo[d]thiazole]-7-sulfonic acid] | 355 | 497 | 159 | 41,750 M^−1cm^−1 | 35 ± 26 | 35 ± 26 | > 100 | 6 ± 1.9 | 6.4 ± 2 | 6.4 ± 2 | 6 ± 2 | 61 ± 13 |  |
| Cc1ccc2nc(-c3ccc4nc(-c5ccc(NC(=O)c6ccc7ccccc7c6)cc5)sc4c3)sc2c1S(=O)(=O)O [Compound 33, 2′-(4-(2-naphthamido)phenyl)-6-methyl-[2,6′-bibenzo[d]thiazole]-7-sulfonic acid] | 359 | 496 | 236 | 63,450 M^−1cm^−1 | 64 ± 7 | 63 ± 11 | 25 | 3 ± 0.7 | 2.7 ± 0.7 | 3.6 | 4 | 30 ± 6 |  |
| COc1ccc(NC(=O)Nc2ccc(-c3nc4ccc(-c5nc6ccc(C)c(S(=O)(=O)O)c6s5)cc4s3)cc2)cc1 [Compound 55] |  |  |  |  |  | 55 ± 6 | 73 |  |  | 4.8 ± 2 | 5 ± 2 |  |  |
| Cc1ccc2nc(-c3ccc4nc(-c5ccc(N)cc5)sc4c3)sc2c1S(=O)(=O)O [Compound P2a, 2′-(4-aminophenyl)-6-methyl-[2,6′-bibenzo[d]thiazole]-7-sulfonic acid] | 366 | 553 | 15 | 38,550 M^−1cm^−1 |  |  |  | 45 ± 14 | 49 |  | 6 ± 2 | > 200 | 10-20 times |
